For orientation: IC50 means the midpoint of a concentration-inhibition curve. Low readings indicate inhibition by little substance, high ones a need for much substance.

20 compounds from patent US12649723B2, “Carbonohydrazonoyl dicyanide compounds comprising 2 or more aryl or heteroaryl connected via linker and use thereof” (KOREA INSTITUTE OF SCIENCE AND TECHNOLOGY, priority 2020, dated 2026) can be followed below.

Data set [1] in a line: Liver microsome stability. The data set is classed as in vitro ADME, mouse. To be noted: amount of substrate remaining; compound 1 μM, 30 minutes, 37° C., NADPH. On the procedure:
(§1) The stability of liver microsomes due to the compounds prepared according to Examples 1 to 175 was confirmed. Specifically, four types of liver microsomes (human, dog, rat, and mouse, each 0.25 mg/mL), a 0.1 M phosphate buffer solution (pH 7.4), and each of the compounds at a concentration of 1 μM were mixed and pre-cultured at 37° C. for 5 minutes and further cultured at 37° C. for 30 minutes together with an NADPH generation system solution added thereto. Thereafter, the reaction was terminated by adding an acetonitrile solution containing an internal standard material (chloropropamide) and centrifuged for 5 minutes (14,000 rpm, 4° C.), and then a supernatant was injected into an LC-MS/MS system for analysis of substrate drugs to thereby evaluate metabolic stability due to 8 types of compounds.
(§2) The amount of the substrate remaining after the reaction was analyzed using the Shimadzu Nexera XR system and TSQ Vantage (Thermo). In an HPLC column, Kinetex XB-C18 (2.1 mm×100 mm, particle size of 2.6 μm; Phenomenex, USA) was used, and mobile phases were (A) distilled water containing 0.1% formic acid and (B) acetonitrile containing 0.1% formic acid. Analyst software (version 1.6.3) and Xcalibur (version 1.6.1) were used for data analysis.
For orientation: Liver microsomes are vesicles of endoplasmic reticulum, rich in cytochrome P450 enzymes.

Data set [2] in a line: Liver microsome stability. Conditions: amount of substrate remaining; compound 1 μM, 30 minutes, 37° C., NADPH. The data set is classed as in vitro ADME, human. On the procedure: as §1, §2
The target in the next data set is T1, tau protein (Homo sapiens, UniProt P10636).
T1 construct: fused on or other part: Split fluorescent-protein halves for BiFC are fused to tau; In the published tau-BiFC line these are Venus VN173 and VC155
T1 sequence (P10636 2-441 isoform P10636-8 limits assumed): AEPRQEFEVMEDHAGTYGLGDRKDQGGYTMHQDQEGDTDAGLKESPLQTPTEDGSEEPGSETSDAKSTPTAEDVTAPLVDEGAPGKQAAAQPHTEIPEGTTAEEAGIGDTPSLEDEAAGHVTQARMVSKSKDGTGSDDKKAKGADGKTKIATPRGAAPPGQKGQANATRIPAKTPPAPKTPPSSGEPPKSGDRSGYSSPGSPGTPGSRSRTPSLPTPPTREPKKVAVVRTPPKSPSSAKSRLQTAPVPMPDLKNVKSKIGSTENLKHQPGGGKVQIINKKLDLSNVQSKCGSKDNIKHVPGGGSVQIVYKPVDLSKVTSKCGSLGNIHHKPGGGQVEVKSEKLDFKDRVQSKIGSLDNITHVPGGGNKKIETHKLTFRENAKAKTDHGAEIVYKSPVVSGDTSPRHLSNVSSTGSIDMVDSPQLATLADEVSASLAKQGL
Put plainly: Tau-BiFC cell model: inhibition of tau protein aggregation. In kind it is cell-based. To be noted: for remaining activity at 3 µM / remaining activity at 10 µM: 48 h, Forskolin-only group = 100% tau protein-aggregated state; for remaining activity at 3 µM: compounds marked *: measured at 3 μM, read-out: Response; for IC50: Tau BiFC in cells, with Forskolin 30 μM, 48 hours; for remaining activity at 10 µM: compound 10 μM, BiFC fluorescence, read-out: Response (% @10 μM). The essentials: (§3)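 Tau-BiFC cells were exposed for 48 h to compound (1, 3, 10 μM for screening; 0.03–30 μM for dose-response) plus 30 μM Forskolin to induce aggregation. BiFC fluorescence was normalised to Forskolin-only minus untreated controls, with IC50 from nonlinear regression. Viability was Hoechst-stained nuclei counts relative to Forskolin-only wells.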

Data set [3] can be described thus: Liver microsome stability. The data set is classed as in vitro ADME, rat. Conditions: amount of substrate remaining; compound 1 μM, 30 minutes, 37° C., NADPH. On the procedure: as §1, §2
A further data set has as its system Tau-BiFC cells. Put plainly: Cell viability (cytotoxicity) in tau-BiFC cells, count of stained nuclei. The data set is classed as cell-based. To be noted: Forskolin-only group = 100% cell viability; for Cell viability: compounds marked *: measured at 3 μM; for Cell viability (% @10 μM): compound 10 μM. The method in brief: as §3

Molecules are shown by their SMILES.

Take `Cc1cc(NN=C(C#N)C#N)ccc1OCc1ccc(C(F)(F)F)cc1` [Compound 148, (3-methyl-4-(4-(trifluoromethyl)benzyloxy)phenyl)carbonohydrazonoyl dicyanide]: in data set [1], the “Mouse (%)” value was above 100%. Also, in data set [2], the “Human (%)” value came out at 77.4%. The remaining activity at 3 µM on tau protein is 22%. The “Rat (%)” value in data set [3] is listed as 86.3%. The Cell viability in the data set on Tau-BiFC cells worked out at 114%.

Consider `COc1cc(NN=C(C#N)C#N)ccc1OCc1nc2ccccc2o1` [Compound 166, (4-(benzo[d]oxazol-2-ylmethoxy)-3-methoxyphenyl)carbonohydrazonoyl dicyanide], for which, in data set [1], the “Mouse (%)” value is 68.1%. Also, in data set [2], the “Human (%)” value came to 6.6%. Also, at tau protein, the remaining activity at 3 µM is -43% and the IC50 was found to be 214 nM. Moreover, the “Rat (%)” value in data set [3] was 6.5%. The Cell viability in the data set with Tau-BiFC cells is listed as 121%.

With `COc1cc(NN=C(C#N)C#N)ccc1OCc1csc(C)n1` [Compound 171, (3-methoxy-4-((2-methylthiazol-4-yl)methoxy)phenyl)carbonohydrazonoyl dicyanide], the “Mouse (%)” value in data set [1] is 70.3%. For the same compound, in data set [2], the “Human (%)” value is recorded as 79.2%. For the same compound, the “Rat (%)” value in data set [3] is reported as 80.3%.

As to `COc1cc(NN=C(C#N)C#N)ccc1OCc1cccnn1` [Compound 164, (3-methoxy-4-(pyridazin-3-ylmethoxy)phenyl)carbonohydrazonoyl dicyanide], the “Mouse (%)” value in data set [1] is listed as 24.6%. For the same compound, the “Human (%)” value in data set [2] is 96.8%. Further, at tau protein, the remaining activity at 3 µM is -1% and the IC50 amounted to 96 nM. The “Rat (%)” value in data set [3] is on record as 29.1%. In addition, in the data set with Tau-BiFC cells, the Cell viability worked out at 109%.

For the compound `COc1cc(NN=C(C#N)C#N)ccc1OCc1cnn(C)c1` [Compound 174, (3-methoxy-4-((1-methyl-1H-pyrazol-4-yl)methoxy)phenyl)carbonohydrazonoyl dicyanide], the “Mouse (%)” value in data set [1] is recorded as above 100%. Also, the “Human (%)” value in data set [2] turned out to be 72%. In addition, the “Rat (%)” value in data set [3] was found to be 54.3%.

For the compound `COc1cc(NN=C(C#N)C#N)ccc1OCc1nc2ccccc2s1` [Compound 165, (4-(benzo[d]thiazol-2-ylmethoxy)-3-methoxyphenyl)carbonohydrazonoyl dicyanide], the “Mouse (%)” value in data set [1] was 69.6%. In addition, the “Human (%)” value in data set [2] amounted to 42.4%. In addition, at tau protein, the remaining activity at 3 µM was -40%. Also, the “Rat (%)” value in data set [3] came out at 42.4%. The Cell viability in the data set on Tau-BiFC cells is listed as 113%.

As for `COc1cc(NN=C(C#N)C#N)ccc1OCc1cc[nH]n1` [Compound 168, (4-((1H-pyrazol-3-yl)methoxy)-3-methoxyphenyl)carbonohydrazonoyl dicyanide], the “Mouse (%)” value in data set [1] was found to be 77.8%. Moreover, in data set [2], the “Human (%)” value was 54.8%. On tau protein, the remaining activity at 3 µM was -17% and the IC50 is 132 nM. Moreover, in data set [3], the “Rat (%)” value is on record as 44%. Further, the Cell viability in the data set on Tau-BiFC cells worked out at 123%.

With `Cc1cc(NN=C(C#N)C#N)ccc1OCc1nc2ccccc2s1` [Compound 157, (4-(benzo[d]thiazol-2-ylmethoxy)-3-methylphenyl)carbonohydrazonoyl dicyanide], the “Mouse (%)” value in data set [1] is recorded as 33.2%. For the same compound, the “Human (%)” value in data set [2] came to 69.1%. Besides, the remaining activity at 3 µM on tau protein is 8%. Further, in data set [3], the “Rat (%)” value is reported as 46%. The Cell viability in the data set with Tau-BiFC cells turned out to be 124%.

Consider `COc1cc(NN=C(C#N)C#N)ccc1OCc1ccc(C(F)(F)F)cc1` [Compound 155, (3-methoxy-4-(4-(trifluoromethyl)benzyloxy)phenyl)carbonohydrazonoyl dicyanide], for which the “Mouse (%)” value in data set [1] amounted to 90.8%. For the same compound, in data set [2], the “Human (%)” value was determined as 95.4%. At tau protein, the remaining activity at 3 µM was -43%. In addition, the “Rat (%)” value in data set [3] was 82%. Moreover, the Cell viability in the data set on Tau-BiFC cells was 80%.

Consider `COc1cc(NN=C(C#N)C#N)ccc1OCc1nc2ccccc2[nH]1` [Compound 163, (4-((1H-benzo[d]imidazol-2-yl)methoxy)-3-methoxyphenyl)carbonohydrazonoyl dicyanide], for which the “Mouse (%)” value in data set [1] was found to be 59.5%. Also, in data set [2], the “Human (%)” value came to 86.9%. The remaining activity at 3 µM on tau protein worked out at 91%. Further, in data set [3], the “Rat (%)” value was determined as 71.3%. Further, in the data set on Tau-BiFC cells, the Cell viability amounted to 106%.

`N#CC(C#N)=NNc1ccc(NC(=O)c2nc3ccccc3s2)nc1` [Compound 31, (6-(benzo[d]thiazole-2-carboxamido)pyridin-3-yl)carbonohydrazonoyl dicyanide]: in data set [2], the “Human (%)” value is on record as 28.7%. Moreover, at tau protein, the remaining activity at 10 µM was found to be 0% and the IC50 was determined as 540 nM. Further, the “Cell viability (% @10 μM)” value in the data set with Tau-BiFC cells was 114.3%.

For `COc1cc(NN=C(C#N)C#N)ccc1OCc1cccs1` [Compound 172, (3-methoxy-4-(thiophen-2-ylmethoxy)phenyl)carbonohydrazonoyl dicyanide], the “Mouse (%)” value in data set [1] was found to be 57.3%. The “Human (%)” value in data set [2] is listed as 73.3%. In addition, in data set [3], the “Rat (%)” value was found to be 65.3%.

As to `Cc1cnc(NC(=O)c2ccc(NN=C(C#N)C#N)cc2Cl)cn1` [Compound 106, (3-chloro-4-(5-methylpyrazin-2-ylcarbamoyl)phenyl)carbonohydrazonoyl dicyanide], the remaining activity at 10 µM at tau protein worked out at 0%. For the same compound, the “Cell viability (% @10 μM)” value in the data set with Tau-BiFC cells was 184.9%.

For `Cc1cc(NN=C(C#N)C#N)ccc1Oc1ccncc1` [Compound 79, (3-methyl-4-(pyridin-4-yloxy)phenyl)carbonohydrazonoyl dicyanide], the remaining activity at 10 µM at tau protein came out at 65.9%. In addition, the “Cell viability (% @10 μM)” value in the data set with Tau-BiFC cells is recorded as 115.7%.

On to `N#CC(C#N)=NNc1ccc(C(=O)Nc2ccc(Cl)cc2)nc1` [Compound 37, (6-(4-chlorophenylcarbamoyl)pyridin-3-yl)carbonohydrazonoyl dicyanide], for which the remaining activity at 10 µM at tau protein was determined as 62.7%. Further, the “Cell viability (% @10 μM)” value in the data set on Tau-BiFC cells was found to be 117.8%.

As to `Cc1cnc(C(=O)Nc2cc(C)c(NN=C(C#N)C#N)cn2)cn1` [Compound 13, (4-methyl-6-(5-methylpyrazine-2-carboxamido)pyridin-3-yl)carbonohydrazonoyl dicyanide], on tau protein, the remaining activity at 10 µM was 30% and the 50% inhibitory concentration (IC50) came out at 550 nM. In the data set on Tau-BiFC cells, the “Cell viability (% @10 μM)” value is on record as 110%.

In the case of `CN(N=C(C#N)C#N)c1ccc(Oc2cccc(F)c2)nc1` [Compound 76, (6-(3-fluorophenoxy)pyridin-3-yl)(methyl)carbonohydrazonoyl dicyanide], at tau protein, the remaining activity at 10 µM worked out at 79.9%. Further, the “Cell viability (% @10 μM)” value in the data set on Tau-BiFC cells was 121.7%.

On to `COc1ccc(NC(=O)c2ccc(NN=C(C#N)C#N)cc2OC)cc1` [Compound 109, (3-methoxy-4-(4-methoxyphenylcarbamoyl)phenyl)carbonohydrazonoyl Dicyanide], for which, on tau protein, the remaining activity at 10 µM turned out to be 0% and inhibition was half-maximal at 1400 nM (IC50). Also, in the data set on Tau-BiFC cells, the “Cell viability (% @10 μM)” value is 141.8%.

In the case of `N#CC(C#N)=NNc1ccc(Oc2ncccn2)cc1` [Compound 91, (4-(pyrimidin-2-yloxy)phenyl)carbonohydrazonoyl dicyanide], on tau protein, the remaining activity at 10 µM is 0% and inhibition was half-maximal at 3120 nM (IC50). In addition, the “Cell viability (% @10 μM)” value with Tau-BiFC cells is reported as 117%.

Take `Cc1cncc(NC(=O)c2ccc(NN=C(C#N)C#N)cc2)c1` [Compound 48, (4-(5-methylpyridin-3-ylcarbamoyl)phenyl)carbonohydrazonoyl dicyanide]: the remaining activity at 10 µM at tau protein stood at 0%. The “Cell viability (% @10 μM)” value with Tau-BiFC cells came to 122.3%.
